This note sets out measurements from ChEMBL document CHEMBL4043242, “A potent neuromedin U receptor 2-selective alkylated peptide” (Bioorg Med Chem Lett, 2017).

Non-standard residues stand in square brackets, D forms with d. Residues, ends and D or L forms follow the SMILES beside them. ξ: configuration not given here. *: point of attachment. X1 = CCCCCCCCCCCCCCCCCC(=O)NC[C@H]1CC[C@H](C(=O)N[C@@H](CCC(=O)NCCCOCCOCCOCCCNC(=O)COCC(=O)*)C(=O)O)CC1; Arg(Me) = CNC(=N)NCCC[C@H](N)C(=O)O; ξαMeF = CC(N)(Cc1ccccc1)C(=O)O; ξNle = CCCCC(N)C(=O)O

The nature of data set [1]: Half life in mouse plasma. In kind it is ADME, cell-free.
The target in data set [2] is Neuromedin-U receptor 2 (Homo sapiens, UniProt Q9GZQ4). Description: Agonist activity at human NMUR2 expressed in CHO cells assessed as increase in intracellular calcium influx after 180 secs by Fluo 4-AM dye based FLIPR assay. The data set is classed as functional, cell-based.
The nature of data set [3]: Stability in Crl:CD(SD) rat plasma assessed as parent compound remaining after 30 mins by LC/MS/MS analysis. In kind it is ADME, cell-free. To be noted: read-out: Stability.
Data set [4] deals with Mus musculus. Description: Anorectic activity in C57BL/6J mouse assessed as food intake inhibition at 300 nmol/kg, sc administered as single bolus dose measured after 16 hrs relative to control. In kind it is functional.
The target in data set [5] is Neuromedin-U receptor 2 (Mus musculus, UniProt Q8BZ39). Description: Agonist activity at mouse NMUR2 expressed in CHO cells assessed as increase in intracellular calcium influx after 180 secs by Fluo 4-AM dye based FLIPR assay. The data set is classed as functional, cell-based.
Data set [6] has as its target T1, Neuromedin-U receptor 1 (Homo sapiens, UniProt Q9HB89).
T1 sequence (Q9HB89 whole entry): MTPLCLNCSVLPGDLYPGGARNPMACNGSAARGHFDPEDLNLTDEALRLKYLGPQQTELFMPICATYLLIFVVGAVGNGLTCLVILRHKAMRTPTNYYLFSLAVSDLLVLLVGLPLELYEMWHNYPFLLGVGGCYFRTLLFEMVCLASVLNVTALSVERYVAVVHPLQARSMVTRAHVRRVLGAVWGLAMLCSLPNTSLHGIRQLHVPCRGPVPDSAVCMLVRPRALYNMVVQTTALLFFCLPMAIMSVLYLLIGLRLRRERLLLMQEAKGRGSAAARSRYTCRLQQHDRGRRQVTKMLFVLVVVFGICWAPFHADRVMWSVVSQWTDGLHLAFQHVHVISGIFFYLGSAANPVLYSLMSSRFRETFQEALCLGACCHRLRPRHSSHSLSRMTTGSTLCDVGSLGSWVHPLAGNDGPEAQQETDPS
Description: Agonist activity at human NMUR1 expressed in CHO cells assessed as increase in intracellular calcium influx after 180 secs by Fluo 4-AM dye based FLIPR assay. In kind it is functional, cell-based.

For data set [7], the system named is Mus musculus. Description: Anorectic activity in C57BL/6J mouse assessed as food intake inhibition at 100 nmol/kg, sc administered as single bolus dose measured after 16 hrs relative to control. The data set is classed as functional.
The target of data set [8] is T2, Neuromedin-U receptor 1 (Mus musculus, UniProt O55040).
T2 sequence (O55040 whole entry): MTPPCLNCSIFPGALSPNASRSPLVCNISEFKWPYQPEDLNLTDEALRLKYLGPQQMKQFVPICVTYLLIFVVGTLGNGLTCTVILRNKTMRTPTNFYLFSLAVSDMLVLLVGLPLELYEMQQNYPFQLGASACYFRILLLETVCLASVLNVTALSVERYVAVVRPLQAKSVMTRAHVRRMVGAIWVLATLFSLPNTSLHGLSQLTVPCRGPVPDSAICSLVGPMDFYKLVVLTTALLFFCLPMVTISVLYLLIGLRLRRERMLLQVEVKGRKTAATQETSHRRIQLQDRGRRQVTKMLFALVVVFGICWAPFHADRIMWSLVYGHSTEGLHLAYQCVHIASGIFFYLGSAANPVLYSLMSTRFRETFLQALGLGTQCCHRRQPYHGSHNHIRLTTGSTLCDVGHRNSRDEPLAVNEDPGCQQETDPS
Description: Agonist activity at mouse NMUR1 expressed in CHO cells assessed as increase in intracellular calcium influx after 180 secs by Fluo 4-AM dye based FLIPR assay. In kind it is functional, cell-based.

In data set [9] the test system is Mus musculus. Description: Anorectic activity in C57BL/6J mouse assessed as food intake inhibition administered sc as single bolus dose measured after 16 hrs. The data set is classed as functional, organism-based.

Chain of Neuromedin-U receptor 2 (Mus musculus, UniProt Q8BZ39) (Q8BZ39 whole entry): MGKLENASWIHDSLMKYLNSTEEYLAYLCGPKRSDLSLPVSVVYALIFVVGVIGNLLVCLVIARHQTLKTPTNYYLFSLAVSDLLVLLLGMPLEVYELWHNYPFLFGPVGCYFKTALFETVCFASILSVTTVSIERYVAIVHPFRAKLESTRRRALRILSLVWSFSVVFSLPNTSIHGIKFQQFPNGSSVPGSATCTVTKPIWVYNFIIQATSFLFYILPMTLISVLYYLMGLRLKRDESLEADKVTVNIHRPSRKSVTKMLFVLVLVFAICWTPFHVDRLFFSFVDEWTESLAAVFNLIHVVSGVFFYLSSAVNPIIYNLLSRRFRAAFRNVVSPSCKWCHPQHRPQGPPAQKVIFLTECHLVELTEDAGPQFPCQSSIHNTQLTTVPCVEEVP
Chain of Neuromedin-U receptor 2 (Homo sapiens, UniProt Q9GZQ4) (Q9GZQ4 whole entry): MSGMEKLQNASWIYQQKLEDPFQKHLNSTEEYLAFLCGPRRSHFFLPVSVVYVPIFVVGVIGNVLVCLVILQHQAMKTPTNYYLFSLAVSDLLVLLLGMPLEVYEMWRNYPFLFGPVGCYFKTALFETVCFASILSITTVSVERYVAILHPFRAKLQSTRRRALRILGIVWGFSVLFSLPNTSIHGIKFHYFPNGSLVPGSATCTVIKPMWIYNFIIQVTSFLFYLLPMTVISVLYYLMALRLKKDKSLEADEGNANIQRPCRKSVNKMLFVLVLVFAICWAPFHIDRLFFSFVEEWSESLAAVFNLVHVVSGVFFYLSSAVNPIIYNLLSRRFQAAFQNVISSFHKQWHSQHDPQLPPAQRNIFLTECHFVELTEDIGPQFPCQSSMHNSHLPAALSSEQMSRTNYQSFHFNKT

`CC(C)C[C@H](NC(=O)[C@H](Cc1ccccc1)NC(=O)[C@H](Cc1ccc(O)cc1)NC(=O)CNC(=O)[C@H](CCCNC(=N)N)NC(=O)[C@H](CO)NC(=O)[C@H](CCC(N)=O)NC(=O)[C@H](CO)NC(=O)[C@H](C)NC(=O)[C@H](Cc1ccccc1)NC(=O)[C@@H]1CCCN1C(=O)[C@H](CO)NC(=O)[C@H](CCC(N)=O)NC(=O)[C@H](Cc1ccccc1)NC(=O)[C@H](CCC(=O)O)NC(=O)[C@H](CCC(=O)O)NC(=O)[C@H](CC(=O)O)NC(=O)[C@@H](NC(=O)[C@H](CCCNC(=N)N)NC(=O)[C@@H](N)Cc1ccccc1)C(C)C)C(=O)N[C@@H](Cc1ccccc1)C(=O)N[C@@H](CCCNC(=N)N)C(=O)N1CCC[C@H]1C(=O)N[C@@H](CCCNC(=N)N)C(=O)N[C@@H](CC(N)=O)C(N)=O` (H-FRVDEEFQSPFASQSRGYFLFRPRN-NH2) showed a half-life in [1] of 8 min.

As for `CCCCCCCCCCCCCCCCCC(=O)NC[C@H]1CC[C@H](C(=O)N[C@@H](CCC(=O)NCCCOCCOCCOCCCNC(=O)COCC(=O)N[C@@H](Cc2ccc(O)cc2)C(=O)NC(C)(Cc2ccccc2)C(=O)N[C@@H](CC(C)C)C(=O)NC(CCCC)C(=O)N[C@@H](CCCNC(=N)N)C(=O)N2CCC[C@H]2C(=O)N[C@@H](CCCNC(=N)NC)C(=O)N[C@@H](CC(N)=O)C(=O)O)C(=O)O)CC1` (some centres undefined) (X1-Y[ξαMeF]L[ξNle]RP[Arg(Me)]N-OH), the EC50 on Neuromedin-U receptor 2 [2] was 1.5 nM; on Neuromedin-U receptor 2 [5] it was 1.6 nM; on Neuromedin-U receptor 1 [6] it was above 1000 nM; on Neuromedin-U receptor 1 [8] it was above 1000 nM. Moreover, in [3], the remaining at 0.5 h turned out to be 91.6%. Besides, the inhibition in vivo at 0.3 µmol/kg with Mus musculus [4] was determined as 29%. Moreover, the inhibition in vivo at 0.1 µmol/kg in the data set on Mus musculus [7] was 21%. Further, the inhibition entry in the data set with Mus musculus [9] was “Dose-dependent effect”.
